# Data reported in patent US20240397946A1 (priority 2021, published 2024).
# Values joined by “and” are separate entries in the source; they are usually repeats but may differ in a detail not shown here. Equal values may be shown once. Read-outs that look alike come from different tables or passages of the source.
# What was measured:
# [1] = test system: Corynespora cassiicola; experiment: Target spot severity, AUDPC and control efficiency on soybean, Anaurilândia, MS; details: 2020
# [2] = soybean, in vivo
# [3] = cited from earlier work; for Classification (acid/base) / dissociation constant - Pka: triazole fungicides, PPDB
# [4] = Percentage of light absorption of the three active ingredients between 200 and 330 nm; details: for Percentage of light absorption: typical application concentrations
# [5] = PPDB, cited from earlier work; for Solubility in water: triazole fungicides
# [6] = triazole fungicides; PPDB; cited from earlier work
# [7] = set-up: RL50 min / RL50 max / RL50 average: unit not given beside the values; details: cited from earlier work; for average daily rates of degradation: PPDB
# [8] = Levels of fungicides in soybean leaves (total, internal, leaf surface, rainwater) at 3, 6 and 11 DAA, normalized by dose
# [9] = strobilurin group; PPDB / PubChem; cited from earlier work
# [10] = Persistence of fungicides in the plant matrix (RL50, half-life, daily degradation; literature)
# [11] = Grape, Italy, Fruit, In and On, Open field, Garau 2009
# [12] = Green bean, Egypt, Leaves, On, Open field, Hanafi 2010
# [13] = Peanut, India, Leaves, In and On, Open field, Rao 2013
# [14] = Rice, China, Whole plant, In and On, Open field, Guo 2017
# [15] = Spring onion, Egypt, Leaves, On, Open field, Hanafi
# [16] = Strawberry, China, Fruit, In and On, Undercover, Zhang 2009
# [17] = Strawberry, China, Fruit, On, Undercover, Wang Z. 2015
# [18] = Tomato, Fruit, In and On, Undercover, Jankowska 2016
smiles,measurement,setting,value
CC(Cc1ccc(C(C)(C)C)cc1)CN1C[C@@H](C)O[C@@H](C)C1 (some centres unmarked) [phenpropimorph],"Severity (%) of target spot on soybean plants, Av5",[1]; fifth assessment,29.4 D %
same,"Severity (%) of target spot on soybean plants, Av1",[1]; first assessment,0%
same,"Severity (%) of target spot on soybean plants, Av4",[1]; fourth assessment,8.0 A %
same,"Severity (%) of target spot on soybean plants, Av2",[1]; second assessment,1.4 A %
same,"Severity (%) of target spot on soybean plants, Av6",[1]; sixth assessment,37.2 C %
same,area under the disease progress curve (AUDPC),"[1]; target spot, from six severity assessments",688.9 D
same,"Severity (%) of target spot on soybean plants, Av3",[1]; third assessment,4.6 A %
CC(C1CC1)C(O)(Cn1cncn1)c1ccc(Cl)cc1 (centres unmarked) [cyproconazole],average total levels for all commercial products and evaluated prototypes,[2]; 3 days after application,267 (ng/g)/(g/ha)
same,percentage of the internal content in relation to the total content,[2]; 3 days after application,69%
same,average total levels for all commercial products and evaluated prototypes,[2]; 6 days after application,173 ng.ha/g2
same,percentage of the internal content in relation to the total content,[2]; 6 days after application,62%
same,average total levels for all commercial products and evaluated prototypes,[2]; 11 days after application,83 ng.ha/g2
same,percentage of the internal content in relation to the total content,[2]; 11 days after application,85%
same,Classification (acid/base),[3],no dissociation
same,Percentage of light absorption,"[4]; Partial UVA, 315 a 330 nm",0.00000%
same,Percentage of light absorption,"[4]; Partial UVC, 200 a 280 nm",0.3824%
same,Percentage of light absorption,"[4]; UVB, 280 a 315 nm",0.00943%
CCCCC(O)(Cn1cncn1)c1ccc(Cl)cc1Cl (centres unmarked) [hexaconazole],Classification (acid/base),[3],strong acid
OC(Cc1ccccc1Cl)(Cn1nc[nH]c1=S)C1(Cl)CC1 (centres unmarked) [prothioconazole],Solubility in water,[5],22.5 mg/L oR PPM
same,Log Kow (Log de P),[6],2
same,Classification (acid/base),[3],weak acid
same,dissociation constant - Pka,[3],6.9
N#Cc1c(Cl)c(Cl)c(Cl)c(C#N)c1Cl [chlorothalonil],solubility,[5],0.81 ppm
same,water solubilities,[5],0.81 mg/L
same,average daily rates of degradation,[7]; […],12.9%
same,average daily rates of degradation,[7]; only on the surface of plant tissues,11.8%
same,Percentage of light absorption,"[4]; Partial UVA, 315 a 330 nm",100%
same,Percentage of light absorption,"[4]; Partial UVC, 200 a 280 nm",98.35%
same,Percentage of light absorption,"[4]; UVB, 280 a 315 nm",99.95%
same,ultraviolet light absorbed between 200 and 330 nm,[4]; typical concentrations of application in the field,practically all
same,average total levels for all commercial products and evaluated prototypes,"[8]; 03 DAA, 40 to 50 repetitions",210 (ng/g)/(g/ha)
same,average total levels for all commercial products and evaluated prototypes,[8]; 06 DAA,132 ng.ha/g2
same,average total levels for all commercial products and evaluated prototypes,[8]; 11 DAA,66 ng.ha/g2
Clc1ccc(C2(Cn3cncn3)CC(Br)CO2)c(Cl)c1 (centres unmarked) [bromuconazole],Solubility in water,[5],48.3 mg/L oR PPM
same,Log Kow (Log de P),[6],3.24
same,Classification (acid/base),[3],strong acid
O=c1c2cc(F)ccc2nc(-n2cncn2)n1-c1ccc(Cl)cc1Cl [fluquinconazole],Log Kow (Log de P),[6],3.24
same,Classification (acid/base),[3],strong acid
CC(C)(C)C(O)(CCc1ccc(Cl)cc1)Cn1cncn1 (centres unmarked) [tebuconazole],Log Kow (Log de P),[6],3.7
CC(C)(C)C(O)/C(=C\c1ccc(Cl)cc1)n1cncn1 (centres unmarked) [uniconazole],Classification (acid/base),[3],very weak acid
CC1COC(Cn2cncn2)(c2ccc(Oc3ccc(Cl)cc3)cc2Cl)O1 (centres unmarked) [difenoconazole],Log Kow (Log de P),[6],4.36
same,Classification (acid/base),[3],strong acid
same,dissociation constant - Pka,[3],1.07
CCCC1COC(Cn2cncn2)(c2ccc(Cl)cc2Cl)O1 (centres unmarked) [propiconazole],Log Kow (Log de P),[6],3.72
same,Classification (acid/base),[3],very weak base
Fc1ccc([C@]2(Cn3cncn3)O[C@H]2c2ccccc2Cl)cc1 (racemic) [epoxiconazole],Classification (acid/base),[3],no dissociation
Clc1ccc(C2(Cn3cncn3)OCCO2)c(Cl)c1 [azaconazole],Solubility in water,[5],300 mg/L oR PPM
same,Log Kow (Log de P),[6],2.36
same,Classification (acid/base),[3],very weak base
COC(=O)N(OC)c1ccccc1COc1ccn(-c2ccc(Cl)cc2)n1 [pyraclostrobin],Steam pressure,[9],2.60E−05 mpa
same,ionization,"[3]; strobilurin group, PPDB / PubChem",not ionizable
same,RL50 average,[7]; [11],5.40
same,RL50 max,[7]; [11],5.40
same,RL50 min,[7]; [11],5.40
same,RL50 average,[7]; [12],4.30
same,RL50 max,[7]; [12],4.30
same,RL50 min,[7]; [12],4.30
same,RL50 average,[7]; [13],2.86
same,RL50 max,[7]; [13],2.88
same,RL50 min,[7]; [13],2.84
same,RL50 average,[7]; [14],10.10
same,RL50 max,[7]; [14],13.90
same,RL50 min,[7]; [14],6.30
same,RL50 average,[7]; [15],3.10
same,RL50 max,[7]; [15],3.10
same,RL50 min,[7]; [15],3.10
same,RL50 average,[7]; [16],4.06
same,RL50 max,[7]; [16],4.06
same,RL50 min,[7]; [16],4.06
same,RL50 average,[7]; [17],3.70
same,RL50 max,[7]; [17],3.70
same,RL50 min,[7]; [17],3.70
same,RL50 average,[7]; [18],2.78 and 2.70
same,RL50 max,[7]; [18],2.78 and 2.70
same,RL50 min,[7]; [18],2.78 and 2.70
same,Daily percentage of degradation,"[10]; in plants, from the literature observations of Table 04",14.78%
same,half-life,[10]; in vivo,104 h
CC1(C)CCC(=Cc2ccc(Cl)cc2)C1(O)Cn1cncn1 (centres unmarked) [triticonazole],Classification (acid/base),[3],no dissociation
N#CC(CCc1ccc(Cl)cc1)(Cn1cncn1)c1ccccc1 (centres unmarked) [fenbuconazole],Solubility in water,[5],2.47 mg/L oR PPM
same,Log Kow (Log de P),[6],3.79
same,Classification (acid/base),[3],no dissociation
CC1(C)CCC(Cc2ccc(Cl)cc2)C1(O)Cn1cncn1 (centres unmarked) [metconazole],Classification (acid/base),[3],very weak acid
FC(F)C(F)(F)OCC(Cn1cncn1)c1ccc(Cl)cc1Cl (centres unmarked) [tetraconazole],Classification (acid/base),[3],strong acid
